One experiment has as its target p110α (PI3Kα) (Homo sapiens, UniProt P42336). As to the kind of experiment: LanthaScreen determination of kinetic constants (kinact, Ki) for p110α.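 As to all read-outs here: covalent inhibition constants for p110α come from LanthaScreen data, fitted globally by numerical integration in KinTek Global Kinetic Explorer software.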 The format is binding. To be noted: for Ki: dissociation constant of the first reversible binding, mean of 3; for kinact: read-out: kinact PI3Kα. (In general: Time-resolved FRET reads energy transfer from a long-lived donor to a nearby acceptor.)

The test system of experiment [1] is pSer473 of PKB/Akt in SKOV3 cells. As to the kind of experiment: In-Cell Western cellular PI3K signaling, pSer473 of PKB/Akt in SKOV3 cells. The experiment is classed as cell-based. The conditions noted are these: Homo sapiens. How it is done: Protein phosphorylation was detected as follows: pSer473 of PKB/Akt with rabbit polyclonal antibody from Cell Signaling Technology (CST) (#4058) by In-Cell Western assays, where 1.2×10^4 SKOV3 cells/well in 96-well plates were plated (Cell Carrier, PerkinElmer) for 24 hours (37° C., 5% CO2), as described in Ref.^21.

Experiment [2] can be described thus: Intrinsic reactivity of the inhibitors with βME measured with HPLC. The experiment is classed as physicochemical. To be noted: 1 mM inhibitor + 600 mM βME, n = 3, mean. The source says: E˜I→EI • ii) off-target reactions with ubiquitous sulfhydryls (S) and other nucleophils present in physiologic environments such as cells and body fluids are driven by the intrinsic reactivity of the warhead that is defined by Kchem driving the conversion of S and I to form the sulfhydryl-adduct (SI) [table]

Setting [3] is: mean of 3 independent measurements, global fitting with KinTek.
Setting [4] is: SK-OV-3, SKOV3 cells, mean of 2 or 3 independent measurements, read-out: IC50 pPKB (S473) SKOV3.
[5] abbreviates: SK-OV-3, read-out: IC50 pPKB (S473) SKOV3.

Where two headings read alike, the source gives them in different places.

Chain of p110α (PI3Kα) (P42336 whole entry): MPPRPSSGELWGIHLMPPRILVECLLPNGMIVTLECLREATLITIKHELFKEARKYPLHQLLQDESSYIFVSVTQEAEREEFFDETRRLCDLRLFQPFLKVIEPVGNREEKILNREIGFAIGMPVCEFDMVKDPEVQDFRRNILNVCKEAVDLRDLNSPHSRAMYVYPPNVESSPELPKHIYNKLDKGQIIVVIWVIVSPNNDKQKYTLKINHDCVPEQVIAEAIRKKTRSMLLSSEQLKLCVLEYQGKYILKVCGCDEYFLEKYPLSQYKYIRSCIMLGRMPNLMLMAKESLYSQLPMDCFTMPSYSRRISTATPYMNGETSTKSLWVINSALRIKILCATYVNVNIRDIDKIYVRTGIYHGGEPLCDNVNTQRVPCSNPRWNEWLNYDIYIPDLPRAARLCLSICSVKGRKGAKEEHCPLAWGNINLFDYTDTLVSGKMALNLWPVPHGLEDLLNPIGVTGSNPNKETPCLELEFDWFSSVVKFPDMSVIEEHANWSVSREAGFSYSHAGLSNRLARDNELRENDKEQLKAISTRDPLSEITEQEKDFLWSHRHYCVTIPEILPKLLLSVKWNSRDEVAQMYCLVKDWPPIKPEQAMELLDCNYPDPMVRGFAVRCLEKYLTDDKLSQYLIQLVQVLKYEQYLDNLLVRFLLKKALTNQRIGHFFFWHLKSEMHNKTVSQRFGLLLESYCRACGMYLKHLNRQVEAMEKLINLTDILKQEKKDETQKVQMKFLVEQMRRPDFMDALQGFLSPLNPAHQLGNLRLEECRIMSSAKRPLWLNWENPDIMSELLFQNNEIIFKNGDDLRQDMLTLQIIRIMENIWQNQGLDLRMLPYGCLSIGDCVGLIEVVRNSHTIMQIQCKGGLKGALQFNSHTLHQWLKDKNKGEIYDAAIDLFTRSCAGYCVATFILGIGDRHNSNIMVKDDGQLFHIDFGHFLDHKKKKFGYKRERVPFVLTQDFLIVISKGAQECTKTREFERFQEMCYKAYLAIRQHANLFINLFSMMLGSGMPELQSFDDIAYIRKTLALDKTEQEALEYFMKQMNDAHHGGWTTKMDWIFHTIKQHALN
Chain of p110α (PI3Kα) (P27986 whole entry partner): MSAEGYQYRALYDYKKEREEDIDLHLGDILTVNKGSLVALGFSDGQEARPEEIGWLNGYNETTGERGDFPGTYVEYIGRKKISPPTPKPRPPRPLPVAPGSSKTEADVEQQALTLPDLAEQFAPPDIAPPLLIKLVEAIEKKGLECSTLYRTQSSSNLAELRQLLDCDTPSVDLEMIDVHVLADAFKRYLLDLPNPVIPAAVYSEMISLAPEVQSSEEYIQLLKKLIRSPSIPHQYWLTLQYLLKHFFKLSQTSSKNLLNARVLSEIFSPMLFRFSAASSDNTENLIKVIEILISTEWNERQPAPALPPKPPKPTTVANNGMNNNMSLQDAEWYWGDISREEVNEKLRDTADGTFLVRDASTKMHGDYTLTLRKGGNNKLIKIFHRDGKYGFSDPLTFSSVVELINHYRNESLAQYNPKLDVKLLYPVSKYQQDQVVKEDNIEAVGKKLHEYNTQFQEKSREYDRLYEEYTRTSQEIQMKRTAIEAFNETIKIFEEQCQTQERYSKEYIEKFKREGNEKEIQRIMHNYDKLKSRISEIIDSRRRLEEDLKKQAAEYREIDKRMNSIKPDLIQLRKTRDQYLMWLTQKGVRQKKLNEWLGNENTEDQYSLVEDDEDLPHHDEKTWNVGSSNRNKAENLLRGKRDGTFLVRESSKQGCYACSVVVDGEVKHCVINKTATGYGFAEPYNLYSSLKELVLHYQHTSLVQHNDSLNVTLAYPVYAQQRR
Procedure for p110α (PI3Kα): Apparent dissociation constants of compounds [Ki(app)] for p110α were determined by LanthaScreen Technology (Life Technologies), as described in Ref.^21.
Maximum potential rate of covalent bond formation (Kinact) and dissociation constant of the first reversible binding (Ki) of compounds for p110α were determined by LanthaScreen Technology (Life Technologies). The calculation of kinetic parameters was carried out through global fitting for numerical integration by using KinTek Global Kinetic Explorer modelling software^22-27.

Turning to `C=CC(=O)N1CC[C@H](C(=O)NCC(=O)N2CCN(c3nc(-c4cnc(N)nc4C(F)F)nc(N4CCOCC4)n3)CC2)C1` [Compound 24, (S)-1-acryloyl-N-(2-(4-(4-(2-amino-4-(difluoromethyl)pyrimidin-5-yl)-6-morpholino-1,3,5-triazin-2-yl)piperazin-1-yl)-2-oxoethyl)pyrrolidine-3-carboxamide], the kinact/KI at p110α (PI3Kα) (PI3Kα, read-out: kinact/Ki) amounted to 311000 M⁻¹ s⁻¹. The compound further gave a Ki at p110α (PI3Kα) of 8.34 nM. For the same compound, the kinact at p110α (PI3Kα) (setting [3]) is 0.0026 s⁻¹. In addition, in experiment [1] (setting [4]), the IC50 was found to be 94 nM. For the same compound, in experiment [2], the kchem came to 0.00059 M⁻¹ s⁻¹.

Consider `C=CC(=O)N1CC(C(=O)N(C)CCC(=O)N2CCN(c3nc(-c4cnc(N)nc4C(F)F)nc(N4CCOCC4)n3)CC2)C1` [Compound 37, 1-acryloyl-N-(3-(4-(4-(2-amino-4-(difluoromethyl)pyrimidin-5-yl)-6-morpholino-1,3,5-triazin-2-yl)piperazin-1-yl)-3-oxopropyl)-N-methylazetidine-3-carboxamide], for which the IC50 in experiment [1] (setting [4]) amounted to 196 nM. Besides, the kchem in experiment [2] came to 0.00636 M⁻¹ s⁻¹.

With `C=CC(=O)N1CCC[C@H]1C(=O)N(C)CC(=O)N1CCN(c2nc(-c3cnc(N)nc3C(F)F)nc(N3CCOCC3)n2)CC1` [Compound 30, (S)-1-acryloyl-N-(2-(4-(4-(2-amino-4-(difluoromethyl)pyrimidin-5-yl)-6-morpholino-1,3,5-triazin-2-yl)piperazin-1-yl)-2-oxoethyl)-N-methylpyrrolidine-2-carboxamide], the kchem in experiment [2] stood at 0.00058 M⁻¹ s⁻¹.

For the compound `C=CC(=O)N1CC[C@@H](C(=O)NCC(=O)N2CCN(c3nc(-c4cnc(N)nc4C(F)F)nc(N4CCOCC4)n3)CC2)C1` [Compound 25, (R)-1-acryloyl-N-(2-(4-(4-(2-amino-4-(difluoromethyl)pyrimidin-5-yl)-6-morpholino-1,3,5-triazin-2-yl)piperazin-1-yl)-2-oxoethyl)pyrrolidine-3-carboxamide], at p110α (PI3Kα), the kinact/KI worked out at 961000 M⁻¹ s⁻¹; the affinity, expressed as Ki, was 5.36 nM; the kinact was determined as 0.00514 s⁻¹. Moreover, in experiment [1] (setting [5]), the IC50 is 42 nM. Besides, the kchem in experiment [2] is 0.00062 M⁻¹ s⁻¹.

As to `C=CC(=O)N1CC[C@@H](C(=O)N(C)CC(=O)N2CCN(c3nc(-c4cnc(N)nc4C(F)F)nc(N4CCOCC4)n3)CC2)C1` [Compound 27, (R)-1-acryloyl-N-(2-(4-(4-(2-amino-4-(difluoromethyl)pyrimidin-5-yl)-6-morpholino-1,3,5-triazin-2-yl)piperazin-1-yl)-2-oxoethyl)-N-methylpyrrolidine-3-carboxamide], the kinact/KI on p110α (PI3Kα) (PI3Kα, read-out: kinact/Ki) turned out to be 531000 M⁻¹ s⁻¹. The same compound came in with a Ki at p110α (PI3Kα) of 6.07 nM. Besides, the kinact on p110α (PI3Kα) (setting [3]) is 0.0032 s⁻¹. In experiment [1] (setting [4]), the IC50 worked out at 64.1 nM. In addition, the kchem in experiment [2] is 0.00049 M⁻¹ s⁻¹.

As for `C=CC(=O)N1CC[C@H](C(=O)N(C)CC(=O)N2CCN(c3nc(-c4cnc(N)nc4C(F)F)nc(N4CCOCC4)n3)CC2)C1` [Compound 26, (S)-1-acryloyl-N-(2-(4-(4-(2-amino-4-(difluoromethyl)pyrimidin-5-yl)-6-morpholino-1,3,5-triazin-2-yl)piperazin-1-yl)-2-oxoethyl)-N-methylpyrrolidine-3-carboxamide], the kinact/KI at p110α (PI3Kα) (PI3Kα, read-out: kinact/Ki) was 150000 M⁻¹ s⁻¹. At p110α (PI3Kα), this compound returned a Ki of 5.28 nM. Also, at p110α (PI3Kα) (setting [3]), the kinact amounted to 0.000789 s⁻¹. Besides, in experiment [1] (setting [4]), the IC50 was 227 nM. Further, in experiment [2], the kchem amounted to 0.0005 M⁻¹ s⁻¹.

In the case of `C=CC(=O)N1CCC(CCCC(=O)N2CCN(c3nc(-c4cnc(N)nc4C(F)F)nc(N4CCOCC4)n3)CC2)CC1` [Compound 47, 4-(1-acryloylpiperidin-4-yl)-1-(4-(4-(2-amino-4-(difluoromethyl)pyrimidin-5-yl)-6-morpholino-1,3,5-triazin-2-yl)piperazin-1-yl)butan-1-one], at p110α (PI3Kα), the kinact/KI was determined as 70300 M⁻¹ s⁻¹, the Ki came to 7.15 nM and the kinact is 0.000504 s⁻¹. Further, in experiment [1] (setting [4]), the IC50 worked out at 24 nM. Also, in experiment [2], the kchem came to 0.000225 M⁻¹ s⁻¹.

In the case of `C=CC(=O)N1CCCC[C@H]1C(=O)N(C)CC(=O)N1CCN(c2nc(-c3cnc(N)nc3C(F)F)nc(N3CCOCC3)n2)CC1` [Compound 22, (S)-1-acryloyl-N-(2-(4-(4-(2-amino-4-(difluoromethyl)pyrimidin-5-yl)-6-morpholino-1,3,5-triazin-2-yl)piperazin-1-yl)-2-oxoethyl)-N-methylpiperidine-2-carboxamide], at p110α (PI3Kα) (PI3Kα, read-out: kinact/Ki), the kinact/KI stood at 54000 M⁻¹ s⁻¹. On p110α (PI3Kα), this compound yielded a Ki of 5.74 nM. For the same compound, the kinact at p110α (PI3Kα) (setting [3]) came to 0.000309 s⁻¹. Also, the IC50 in experiment [1] (setting [4]) was 29.3 nM. Besides, the kchem in experiment [2] was determined as 0.00094 M⁻¹ s⁻¹.

Take `C=CC(=O)N1CCC(COCC(=O)N2CCN(c3nc(-c4cnc(N)nc4C(F)F)nc(N4CCOCC4)n3)CC2)CC1` [Compound 46, 1-(4-((2-(4-(4-(2-amino-4-(difluoromethyl)pyrimidin-5-yl)-6-morpholino-1,3,5-triazin-2-yl)piperazin-1-yl)-2-oxoethoxy)methyl)piperidin-1-yl)prop-2-en-1-one]: at p110α (PI3Kα) (PI3Kα, read-out: kinact/Ki), the kinact/KI was found to be 239000 M⁻¹ s⁻¹. This compound also gave a Ki on p110α (PI3Kα) of 4.29 nM. The kinact on p110α (PI3Kα) (setting [3]) worked out at 0.00102 s⁻¹. Moreover, in experiment [1] (setting [4]), the IC50 was 23 nM. Besides, the kchem in experiment [2] turned out to be 0.00029 M⁻¹ s⁻¹.

Turning to `C=CC(=O)N1CCCC[C@@H]1C(=O)NCC(=O)N1CCN(c2nc(-c3cnc(N)nc3C(F)F)nc(N3CCOCC3)n2)CC1` [Compound 21, (R)-1-acryloyl-N-(2-(4-(4-(2-amino-4-(difluoromethyl)pyrimidin-5-yl)-6-morpholino-1,3,5-triazin-2-yl)piperazin-1-yl)-2-oxoethyl)piperidine-2-carboxamide], the kinact/KI on p110α (PI3Kα) (PI3Kα, read-out: kinact/Ki) stood at 227000 M⁻¹ s⁻¹. In addition, the affinity on p110α (PI3Kα), expressed as Ki, was 3.85 nM. Further, on p110α (PI3Kα) (setting [3]), the kinact stood at 0.000875 s⁻¹. In addition, the IC50 in experiment [1] (setting [4]) is 89.8 nM. The kchem in experiment [2] stood at 0.00469 M⁻¹ s⁻¹.

With `C=CC(=O)N1CCC(C(=O)NCC(=O)N2CCN(c3nc(-c4cnc(N)nc4C(F)F)nc(N4CCOCC4)n3)CC2)CC1` [Compound 44, 1-acryloyl-N-(2-(4-(4-(2-amino-4-(difluoromethyl)pyrimidin-5-yl)-6-morpholino-1,3,5-triazin-2-yl)piperazin-1-yl)-2-oxoethyl)piperidine-4-carboxamide], the IC50 in experiment [1] (setting [4]) was found to be 82 nM. For the same compound, the kchem in experiment [2] was determined as 0.00037 M⁻¹ s⁻¹.

Consider `C=CC(=O)N1CCC(C(=O)N(C)CC(=O)N2CCN(c3nc(-c4cnc(N)nc4C(F)F)nc(N4CCOCC4)n3)CC2)CC1` [Compound 45, 1-acryloyl-N-(2-(4-(4-(2-amino-4-(difluoromethyl)pyrimidin-5-yl)-6-morpholino-1,3,5-triazin-2-yl)piperazin-1-yl)-2-oxoethyl)-N-methylpiperidine-4-carboxamide], for which the IC50 in experiment [1] (setting [4]) came out at 86 nM. The kchem in experiment [2] turned out to be 0.000354 M⁻¹ s⁻¹.

With `C=CC(=O)N1CCC[C@@H](C(=O)N(C)CC(=O)N2CCN(c3nc(-c4cnc(N)nc4C(F)F)nc(N4CCOCC4)n3)CC2)C1` [Compound 18, (R)-1-acryloyl-N-(2-(4-(4-(2-amino-4-(difluoromethyl)pyrimidin-5-yl)-6-morpholino-1,3,5-triazin-2-yl)piperazin-1-yl)-2-oxoethyl)-N-methylpiperidine-3-carboxamide], at p110α (PI3Kα), the kinact/KI came to 711000 M⁻¹ s⁻¹, the Ki came out at 6.08 nM and the inactivation rate constant (kinact) stood at 0.00433 s⁻¹. In experiment [1] (setting [5]), the IC50 came out at 15.3 nM. Moreover, the kchem in experiment [2] turned out to be 0.000704 M⁻¹ s⁻¹.

Regarding `C=CC(=O)N1CC(C(=O)N(C)CC(=O)N2CCN(c3nc(-c4cnc(N)nc4C(F)F)nc(N4CCOCC4)n3)CC2)C1` [Compound 33, 1-acryloyl-N-(2-(4-(4-(2-amino-4-(difluoromethyl)pyrimidin-5-yl)-6-morpholino-1,3,5-triazin-2-yl)piperazin-1-yl)-2-oxoethyl)-N-methylazetidine-3-carboxamide], on p110α (PI3Kα), the kinact/KI was 1.17e+06 M⁻¹ s⁻¹, the inhibition constant (Ki) was 6.43 nM and the kinact was determined as 0.00757 s⁻¹. Moreover, in experiment [1] (setting [5]), the IC50 is 55 nM. The kchem in experiment [2] came to 0.00581 M⁻¹ s⁻¹.

For `C=CC(=O)N1CC(C(=O)NCC(=O)N2CCN(c3nc(-c4cnc(N)nc4C(F)F)nc(N4CCOCC4)n3)CC2)C1` [Compound 32, 1-acryloyl-N-(2-(4-(4-(2-amino-4-(difluoromethyl)pyrimidin-5-yl)-6-morpholino-1,3,5-triazin-2-yl)piperazin-1-yl)-2-oxoethyl)azetidine-3-carboxamide], in experiment [1] (setting [4]), the IC50 was found to be 175 nM. The kchem in experiment [2] worked out at 0.00517 M⁻¹ s⁻¹.

`C=CC(=O)N1CCC[C@@H](C(=O)NCCN2CCN(c3nc(-c4cnc(N)nc4C(F)F)nc(N4CCOCC4)n3)CC2)C1` [Compound 19, (R)-1-acryloyl-N-(2-(4-(4-(2-amino-4-(difluoromethyl)pyrimidin-5-yl)-6-morpholino-1,3,5-triazin-2-yl)piperazin-1-yl)ethyl)piperidine-3-carboxamide]: the kinact/KI on p110α (PI3Kα) (PI3Kα, read-out: kinact/Ki) was determined as 16300 M⁻¹ s⁻¹. The affinity at p110α (PI3Kα) corresponds to a Ki of 12 nM. In addition, the kinact on p110α (PI3Kα) (setting [3]) worked out at 0.000196 s⁻¹. In addition, in experiment [1] (setting [4]), the IC50 stood at 28.8 nM.

With `C=CC(=O)N1CCC[C@@H]1C(=O)N(C)CC(=O)N1CCN(c2nc(-c3cnc(N)nc3C(F)F)nc(N3CCOCC3)n2)CC1` [Compound 31, (R)-1-acryloyl-N-(2-(4-(4-(2-amino-4-(difluoromethyl)pyrimidin-5-yl)-6-morpholino-1,3,5-triazin-2-yl)piperazin-1-yl)-2-oxoethyl)-N-methylpyrrolidine-2-carboxamide], in experiment [1] (setting [4]), the 50% inhibitory concentration (IC50) was 447 nM. The kchem in experiment [2] came to 0.00052 M⁻¹ s⁻¹.

For orientation: Ki means a dissociation constant, usually derived from enzyme kinetics or from competition with a known ligand. Read a low Ki as tighter binding. In general, kinact refers to the maximal first-order rate at which the target is inactivated. In general, IC50 refers to the concentration at which inhibition is half-maximal.

(Values after patent publication US20240208957A1, “TRIAZINE DERIVATIVE AS REVERSIBLE AND IRREVERSIBLE COVALENT INHIBITORS OF PI3K” (UNIVERSITÄT BASEL, priority 2021, published 2024).)
